Our source for the relative viability values is the supplement of paper PMC10307832.

Assay in all cases: relative viability (nuclei count vs DMSO), 5 days (fraction); higher = more cells survive
Compound in the experiment “Cediranib + Trametinib”: COc1cc2c(Oc3ccc4[nH]c(C)cc4c3F)ncnc2cc1OCCCN1CCCC1 [Cediranib] + CC(=O)Nc1cccc(-n2c(=O)n(C3CC3)c(=O)c3c(Nc4ccc(I)cc4F)n(C)c(=O)c(C)c32)c1 [Trametinib] (partner 0.02 µM)
In short, it runs like this:
(§1)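 A single step with final 0.05% Triton X-100, 1% formaldehyde and 1 ug/ml Hoechst fixed the cells and stained nuclei 5 days after treatment. Lung cancer cell lines in 1536-well plates had been treated by pin tool the day after seeding with one drug alone or a fixed anchor-drug dose plus five library-drug doses (not always all listed) in √10 steps, and nuclei were counted on 4× images. Relative viability is the ratio of nuclei in treated wells to nuclei in vehicle wells, taken as the median of duplicate plates.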

Compound in the experiment “Decitabine + Linsitinib”: Nc1ncn([C@H]2C[C@H](O)[C@@H](CO)O2)c(=O)n1 [Decitabine] + C[C@]1(O)C[C@@H](c2nc(-c3ccc4ccc(-c5ccccc5)nc4c3)c3c(N)nccn32)C1 [Linsitinib] (partner 1 µM)
In short, it runs like this:
as §1

Compound in the experiment “Halofuginone + OSI-027”: O=C(C[C@H]1NCCC[C@@H]1O)Cn1cnc2cc(Br)c(Cl)cc2c1=O (racemic) [Halofuginone] + COc1cccc2cc(-c3nc([C@H]4CC[C@H](C(=O)O)CC4)n4ncnc(N)c34)[nH]c12 [OSI-027] (partner 0.5 µM)
In short, it runs like this:
as §1

Compound in experiment [1]: O=C(C[C@H]1NCCC[C@@H]1O)Cn1cnc2cc(Br)c(Cl)cc2c1=O (racemic) [Halofuginone] + O=C(CCCCCCC(=O)Nc1ccccc1)NO [Vorinostat] (partner 1 µM)
In short, it runs like this: as §1

Consider NCI-H520, for which the relative viability was 0.783 with Cediranib + Trametinib (first compound 0.04 µM); 0.435 with Cediranib + Trametinib (first compound 0.1265 µM); 0.54 in the experiment with Cediranib + Trametinib (first compound 0.4 µM); 0.483 with Cediranib + Trametinib (first compound 1.265 µM); 0.521 with Cediranib + Trametinib (first compound 4 µM); 1.13 with Decitabine + Linsitinib (first compound 0.04 µM). The relative viability with Decitabine + Linsitinib (first compound 0.1265 µM) is 0.916; in the experiment with Decitabine + Linsitinib (first compound 0.4 µM), 0.633; with Decitabine + Linsitinib (first compound 1.265 µM), 0.333; with Decitabine + Linsitinib (first compound 4 µM), 0.324; with Halofuginone + OSI-027 (first compound 0.001 µM), 0.311; in the experiment with Halofuginone + OSI-027 (first compound 0.003162 µM), 0.3. Moreover, the relative viability with Halofuginone + OSI-027 (first compound 0.01 µM) was 0.258; with Halofuginone + OSI-027 (first compound 0.03162 µM), 0.321; with Halofuginone + OSI-027 (first compound 0.1 µM), 0.199; in experiment [1] (first compound 0.001 µM) it was 0.644; in experiment [1] (first compound 0.003162 µM), 0.711; in experiment [1] (first compound 0.01 µM), 0.551. Also, the relative viability in experiment [1] (first compound 0.03162 µM) came out at 0.612; in experiment [1] (first compound 0.1 µM) it was 0.309.

201T: the relative viability worked out at 0.705 with Cediranib + Trametinib (first compound 0.04 µM); 0.792 in the experiment with Cediranib + Trametinib (first compound 0.1265 µM); 0.707 with Cediranib + Trametinib (first compound 0.4 µM); 0.719 with Cediranib + Trametinib (first compound 1.265 µM); 0.724 in the experiment with Cediranib + Trametinib (first compound 4 µM); 1.06 in the experiment with Decitabine + Linsitinib (first compound 0.04 µM). Also, the relative viability came out at 1.16 with Decitabine + Linsitinib (first compound 0.1265 µM); 1.3 with Decitabine + Linsitinib (first compound 0.4 µM); 1.1 in the experiment with Decitabine + Linsitinib (first compound 1.265 µM); 0.924 with Decitabine + Linsitinib (first compound 4 µM); 0.755 in the experiment with Halofuginone + OSI-027 (first compound 0.001 µM); 0.775 with Halofuginone + OSI-027 (first compound 0.003162 µM). Moreover, the relative viability in the experiment with Halofuginone + OSI-027 (first compound 0.01 µM) amounted to 0.713; with Halofuginone + OSI-027 (first compound 0.03162 µM), 0.474; with Halofuginone + OSI-027 (first compound 0.1 µM) it was 0.256; in experiment [1] (first compound 0.001 µM), 1.01; in experiment [1] (first compound 0.003162 µM) it was 0.971; in experiment [1] (first compound 0.01 µM) it was 0.964. Further, the results for the relative viability in experiment [1] (first compound 0.03162 µM) and in experiment [1] (first compound 0.1 µM) were 0.909 and 0.776, respectively.

Take NCI-H460: the relative viability with Cediranib + Trametinib (first compound 0.04 µM) was determined as 0.111; with Cediranib + Trametinib (first compound 0.1265 µM), 0.156; in the experiment with Cediranib + Trametinib (first compound 0.4 µM) it was 0.138; in the experiment with Cediranib + Trametinib (first compound 1.265 µM), 0.153; in the experiment with Cediranib + Trametinib (first compound 4 µM), 0.214; in the experiment with Decitabine + Linsitinib (first compound 0.04 µM), 0.651. Moreover, the relative viability was 0.855 with Decitabine + Linsitinib (first compound 0.1265 µM); 0.669 with Decitabine + Linsitinib (first compound 0.4 µM); 0.168 in the experiment with Decitabine + Linsitinib (first compound 1.265 µM); 0.114 in the experiment with Decitabine + Linsitinib (first compound 4 µM); 0.715 with Halofuginone + OSI-027 (first compound 0.001 µM); 0.728 in the experiment with Halofuginone + OSI-027 (first compound 0.003162 µM). Moreover, the relative viability amounted to 0.614 in the experiment with Halofuginone + OSI-027 (first compound 0.01 µM); 0.557 with Halofuginone + OSI-027 (first compound 0.03162 µM); 0.131 with Halofuginone + OSI-027 (first compound 0.1 µM); 0.675 in experiment [1] (first compound 0.001 µM); 0.756 in experiment [1] (first compound 0.003162 µM); 0.744 in experiment [1] (first compound 0.01 µM). The relative viability was 0.495 in experiment [1] (first compound 0.03162 µM) and 0.176 in experiment [1] (first compound 0.1 µM).

On to NCI-H596, for which the relative viability was 0.767 with Cediranib + Trametinib (first compound 0.04 µM); 0.778 in the experiment with Cediranib + Trametinib (first compound 0.1265 µM); 0.73 with Cediranib + Trametinib (first compound 0.4 µM); 0.771 with Cediranib + Trametinib (first compound 1.265 µM); 0.918 with Cediranib + Trametinib (first compound 4 µM); 1.07 with Decitabine + Linsitinib (first compound 0.04 µM). For the same cell line, the relative viability in the experiment with Decitabine + Linsitinib (first compound 0.1265 µM) amounted to 0.983; with Decitabine + Linsitinib (first compound 0.4 µM), 0.885; with Decitabine + Linsitinib (first compound 1.265 µM) it was 0.826; in the experiment with Decitabine + Linsitinib (first compound 4 µM) it was 0.839; in the experiment with Halofuginone + OSI-027 (first compound 0.001 µM) it was 0.923; with Halofuginone + OSI-027 (first compound 0.003162 µM), 0.938. In addition, the relative viability with Halofuginone + OSI-027 (first compound 0.01 µM) worked out at 0.845; with Halofuginone + OSI-027 (first compound 0.03162 µM), 0.67; with Halofuginone + OSI-027 (first compound 0.1 µM), 0.354; in experiment [1] (first compound 0.001 µM) it was 0.628; in experiment [1] (first compound 0.003162 µM), 0.502; in experiment [1] (first compound 0.01 µM), 0.58. Further, the relative viability in experiment [1] (first compound 0.03162 µM) worked out at 0.648; in experiment [1] (first compound 0.1 µM), 0.562.

Consider HARA, for which the relative viability in the experiment with Cediranib + Trametinib (first compound 0.04 µM) was found to be 0.803; with Cediranib + Trametinib (first compound 0.1265 µM), 0.81; in the experiment with Cediranib + Trametinib (first compound 0.4 µM), 0.62; in the experiment with Cediranib + Trametinib (first compound 1.265 µM), 0.882; with Cediranib + Trametinib (first compound 4 µM) it was 0.831; with Decitabine + Linsitinib (first compound 0.04 µM) it was 0.896. Moreover, the relative viability with Decitabine + Linsitinib (first compound 0.1265 µM) was 0.776; in the experiment with Decitabine + Linsitinib (first compound 0.4 µM), 0.69; with Decitabine + Linsitinib (first compound 1.265 µM) it was 0.382; with Decitabine + Linsitinib (first compound 4 µM) it was 0.312; with Halofuginone + OSI-027 (first compound 0.001 µM), 0.68; with Halofuginone + OSI-027 (first compound 0.003162 µM), 0.631. Besides, the relative viability with Halofuginone + OSI-027 (first compound 0.01 µM) stood at 0.536; with Halofuginone + OSI-027 (first compound 0.03162 µM), 0.566; with Halofuginone + OSI-027 (first compound 0.1 µM), 0.399; in experiment [1] (first compound 0.001 µM), 0.587; in experiment [1] (first compound 0.003162 µM), 0.675; in experiment [1] (first compound 0.01 µM), 0.512. In addition, the values for the relative viability in experiment [1] (first compound 0.03162 µM) and in experiment [1] (first compound 0.1 µM) were 0.697 and 0.51, respectively.

As to NCI-H2126, the relative viability in the experiment with Cediranib + Trametinib (first compound 0.04 µM) was found to be 0.575; in the experiment with Cediranib + Trametinib (first compound 0.1265 µM), 0.551; with Cediranib + Trametinib (first compound 0.4 µM), 0.551; with Cediranib + Trametinib (first compound 1.265 µM), 0.578; in the experiment with Cediranib + Trametinib (first compound 4 µM) it was 0.531; with Decitabine + Linsitinib (first compound 0.04 µM), 0.698. The relative viability with Decitabine + Linsitinib (first compound 0.1265 µM) amounted to 0.677; with Decitabine + Linsitinib (first compound 0.4 µM), 0.591; in the experiment with Decitabine + Linsitinib (first compound 1.265 µM) it was 0.533; in the experiment with Decitabine + Linsitinib (first compound 4 µM), 0.489; with Halofuginone + OSI-027 (first compound 0.001 µM) it was 0.727; in the experiment with Halofuginone + OSI-027 (first compound 0.003162 µM) it was 0.604. Also, the relative viability turned out to be 0.695 with Halofuginone + OSI-027 (first compound 0.01 µM); 0.612 in the experiment with Halofuginone + OSI-027 (first compound 0.03162 µM); 0.549 with Halofuginone + OSI-027 (first compound 0.1 µM); 0.903 in experiment [1] (first compound 0.001 µM); 0.762 in experiment [1] (first compound 0.003162 µM); 0.784 in experiment [1] (first compound 0.01 µM). For the same cell line, the results for the relative viability in experiment [1] (first compound 0.03162 µM) and in experiment [1] (first compound 0.1 µM) were 0.74 and 0.562, respectively.

As to HCC-827, the relative viability with Cediranib + Trametinib (first compound 0.04 µM) was determined as 0.6; in the experiment with Cediranib + Trametinib (first compound 0.1265 µM), 0.791; with Cediranib + Trametinib (first compound 0.4 µM), 0.529; with Cediranib + Trametinib (first compound 1.265 µM) it was 0.539; with Cediranib + Trametinib (first compound 4 µM), 0.497; in the experiment with Decitabine + Linsitinib (first compound 0.1265 µM) it was 0.501. In addition, the relative viability with Decitabine + Linsitinib (first compound 0.4 µM) turned out to be 0.396; with Decitabine + Linsitinib (first compound 1.265 µM) it was 0.324; with Decitabine + Linsitinib (first compound 4 µM) it was 0.93; with Halofuginone + OSI-027 (first compound 0.001 µM) it was 0.746; with Halofuginone + OSI-027 (first compound 0.003162 µM), 0.783; with Halofuginone + OSI-027 (first compound 0.01 µM) it was 0.76. Besides, the relative viability with Halofuginone + OSI-027 (first compound 0.03162 µM) amounted to 0.902; in the experiment with Halofuginone + OSI-027 (first compound 0.1 µM) it was 0.742; in experiment [1] (first compound 0.001 µM), 0.764; in experiment [1] (first compound 0.003162 µM), 0.777; in experiment [1] (first compound 0.01 µM), 0.795; in experiment [1] (first compound 0.03162 µM), 0.869. Also, the relative viability in experiment [1] (first compound 0.1 µM) is 0.87.
